The supplement of paper PMC10307832

How the values were obtained:
Experiment in all cases: relative viability (nuclei count vs DMSO), 5 days (fraction); higher = more cells survive
[1] = test system: EMC-BAC-2
Procedure, shortened: (§1)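 One day after seeding in 1536-well plates, lung cancer cell lines were dosed by pin tool. Dosing was either single-drug or a fixed anchor-drug dose plus five library-drug doses (not always all listed) in √10 steps. After 5 days, nuclei were stained in one fix-and-stain step and counted on 4× images, and relative viability is the nuclei count of treated wells over that of vehicle wells, given as the median of duplicate plates.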

[2] = test system: EPLC-272H
Procedure, shortened: as §1

[3] = test system: H3255
Procedure, shortened: as §1

[4] = test system: HOP-62
Procedure, shortened: as §1

[5] = test system: LCLC-97TM1
Procedure, shortened: as §1

[6] = test system: LXF-289
Procedure, shortened: as §1

[7] = test system: NCI-H1563
Procedure, shortened: as §1

[8] = test system: NCI-H1734
Procedure, shortened: as §1

[9] = test system: NCI-H1915
Procedure, shortened: as §1

[10] = test system: NCI-H1993
Procedure, shortened: as §1

[11] = test system: NCI-H2009
Procedure, shortened: as §1

[12] = test system: NCI-H2023
Procedure, shortened: as §1

[13] = test system: NCI-H2085
Procedure, shortened: as §1

[14] = test system: NCI-H2126
Procedure, shortened: as §1

[15] = test system: NCI-H2347
Procedure, shortened: as §1

[16] = test system: NCI-H322M
Procedure, shortened: as §1

[17] = test system: NCI-H647
Procedure, shortened: as §1

[18] = test system: NCI-H661
Procedure, shortened: as §1

[19] = test system: NCI-H727
Procedure, shortened: as §1

[20] = test system: PC-14
Procedure, shortened: as §1

[21] = test system: SK-LU-1
Procedure, shortened: as §1

[22] = test system: SW 1573
Procedure, shortened: as §1

SMILES: CC(=O)O[C@@]12CO[C@@H]1C[C@H](O)[C@@]1(C)C(=O)[C@H](O)C3=C(C)[C@@H](OC(=O)[C@H](O)[C@@H](NC(=O)OC(C)(C)C)c4ccccc4)C[C@@](O)([C@@H](OC(=O)c4ccccc4)[C@H]21)C3(C)C [Docetaxel] + Cc1nc(Nc2ncc(C(=O)Nc3c(C)cccc3Cl)s2)cc(N2CCN(CCO)CC2)n1 [Dasatinib] (partner 0.075 µM)
- relative viability ([1]; first compound 0.0002 µM): 0.298
- relative viability ([1]; first compound 0.000632 µM): 0.232
- relative viability ([1]; first compound 0.002 µM): 0.192
- relative viability ([1]; first compound 0.006325 µM): 0.228
- relative viability ([1]; first compound 0.02 µM): 0.132
- relative viability ([2]; first compound 0.0002 µM): 0.358
- relative viability ([2]; first compound 0.000632 µM): 0.235
- relative viability ([2]; first compound 0.002 µM): 0.142
- relative viability ([2]; first compound 0.006325 µM): 0.107
- relative viability ([2]; first compound 0.02 µM): 0.0615
- relative viability ([3]; first compound 0.0002 µM): 0.378
- relative viability ([3]; first compound 0.000632 µM): 0.439
- relative viability ([3]; first compound 0.002 µM): 0.276
- relative viability ([3]; first compound 0.006325 µM): 0.309
- relative viability ([3]; first compound 0.02 µM): 0.252
- relative viability ([4]; first compound 0.0002 µM): 0.56
- relative viability ([4]; first compound 0.000632 µM): 0.58
- relative viability ([4]; first compound 0.002 µM): 0.309
- relative viability ([4]; first compound 0.02 µM): 0.155
- relative viability ([5]; first compound 0.0002 µM): 0.843
- relative viability ([5]; first compound 0.000632 µM): 0.762
- relative viability ([5]; first compound 0.002 µM): 0.675
- relative viability ([5]; first compound 0.006325 µM): 0.273
- relative viability ([5]; first compound 0.02 µM): 0.144
- relative viability ([6]; first compound 0.0002 µM): 0.181
- relative viability ([6]; first compound 0.000632 µM): 0.154
- relative viability ([6]; first compound 0.002 µM): 0.0677
- relative viability ([6]; first compound 0.006325 µM): 0.0536
- relative viability ([6]; first compound 0.02 µM): 0.0314
- relative viability ([7]; first compound 0.0002 µM): 0.433
- relative viability ([7]; first compound 0.000632 µM): 0.454
- relative viability ([7]; first compound 0.002 µM): 0.423
- relative viability ([7]; first compound 0.006325 µM): 0.406
- relative viability ([7]; first compound 0.02 µM): 0.339
- relative viability ([8]; first compound 0.0002 µM): 0.46
- relative viability ([8]; first compound 0.000632 µM): 0.286
- relative viability ([8]; first compound 0.002 µM): 0.234
- relative viability ([8]; first compound 0.006325 µM): 0.239
- relative viability ([8]; first compound 0.02 µM): 0.163
- relative viability ([9]; first compound 0.0002 µM): 0.304
- relative viability ([9]; first compound 0.000632 µM): 0.331
- relative viability ([9]; first compound 0.002 µM): 0.228
- relative viability ([9]; first compound 0.006325 µM): 0.153
- relative viability ([9]; first compound 0.02 µM): 0.0717
- relative viability ([10]; first compound 0.0002 µM): 0.569
- relative viability ([10]; first compound 0.000632 µM): 0.612
- relative viability ([10]; first compound 0.002 µM): 0.589
- relative viability ([10]; first compound 0.006325 µM): 0.638
- relative viability ([10]; first compound 0.02 µM): 0.465
- relative viability ([11]; first compound 0.0002 µM): 0.261
- relative viability ([11]; first compound 0.000632 µM): 0.299
- relative viability ([11]; first compound 0.002 µM): 0.273
- relative viability ([11]; first compound 0.006325 µM): 0.204
- relative viability ([11]; first compound 0.02 µM): 0.121
- relative viability ([12]; first compound 0.0002 µM): 0.467
- relative viability ([12]; first compound 0.000632 µM): 0.339
- relative viability ([12]; first compound 0.002 µM): 0.134
- relative viability ([12]; first compound 0.006325 µM): 0.123
- relative viability ([12]; first compound 0.02 µM): 0.0567
- relative viability ([13]; first compound 0.0002 µM): 0.229
- relative viability ([13]; first compound 0.000632 µM): 0.268
- relative viability ([13]; first compound 0.002 µM): 0.217
- relative viability ([13]; first compound 0.006325 µM): 0.24
- relative viability ([13]; first compound 0.02 µM): 0.176
- relative viability ([14]; first compound 0.0002 µM): 0.659
- relative viability ([14]; first compound 0.000632 µM): 0.573
- relative viability ([14]; first compound 0.002 µM): 0.363
- relative viability ([14]; first compound 0.006325 µM): 0.339
- relative viability ([15]; first compound 0.0002 µM): 0.336
- relative viability ([15]; first compound 0.000632 µM): 0.326
- relative viability ([15]; first compound 0.002 µM): 0.242
- relative viability ([15]; first compound 0.006325 µM): 0.23
- relative viability ([15]; first compound 0.02 µM): 0.241
- relative viability ([16]; first compound 0.0002 µM): 0.242
- relative viability ([16]; first compound 0.000632 µM): 0.251
- relative viability ([16]; first compound 0.002 µM): 0.372
- relative viability ([16]; first compound 0.006325 µM): 0.406
- relative viability ([16]; first compound 0.02 µM): 0.346
- relative viability ([17]; first compound 0.0002 µM): 0.137
- relative viability ([17]; first compound 0.000632 µM): 0.132
- relative viability ([17]; first compound 0.002 µM): 0.0799
- relative viability ([17]; first compound 0.006325 µM): 0.0795
- relative viability ([17]; first compound 0.02 µM): 0.0407
- relative viability ([18]; first compound 0.0002 µM): 0.836
- relative viability ([18]; first compound 0.000632 µM): 0.792
- relative viability ([18]; first compound 0.002 µM): 0.528
- relative viability ([18]; first compound 0.006325 µM): 0.395
- relative viability ([18]; first compound 0.02 µM): 0.284
- relative viability ([19]; first compound 0.0002 µM): 0.367
- relative viability ([19]; first compound 0.000632 µM): 0.326
- relative viability ([19]; first compound 0.002 µM): 0.272
- relative viability ([19]; first compound 0.006325 µM): 0.395
- relative viability ([19]; first compound 0.02 µM): 0.276
- relative viability ([20]; first compound 0.0002 µM): 0.286
- relative viability ([20]; first compound 0.000632 µM): 0.188
- relative viability ([20]; first compound 0.002 µM): 0.0514
- relative viability ([20]; first compound 0.006325 µM): 0.0304
- relative viability ([20]; first compound 0.02 µM): 0.0231
- relative viability ([21]; first compound 0.0002 µM): 0.175
- relative viability ([21]; first compound 0.000632 µM): 0.156
- relative viability ([21]; first compound 0.006325 µM): 0.122
- relative viability ([21]; first compound 0.02 µM): 0.132
- relative viability ([22]; first compound 0.0002 µM): 0.307
- relative viability ([22]; first compound 0.000632 µM): 0.19
- relative viability ([22]; first compound 0.002 µM): 0.122
- relative viability ([22]; first compound 0.02 µM): 0.0658
